Holding throughout (assay type): cell-based
One assay has as its target T1, human TLR8 (Homo sapiens, UniProt Q9NR97).
T1 construct: host or cells: HEK-Blue cells
T1 sequence (Q9NR97 27-1041): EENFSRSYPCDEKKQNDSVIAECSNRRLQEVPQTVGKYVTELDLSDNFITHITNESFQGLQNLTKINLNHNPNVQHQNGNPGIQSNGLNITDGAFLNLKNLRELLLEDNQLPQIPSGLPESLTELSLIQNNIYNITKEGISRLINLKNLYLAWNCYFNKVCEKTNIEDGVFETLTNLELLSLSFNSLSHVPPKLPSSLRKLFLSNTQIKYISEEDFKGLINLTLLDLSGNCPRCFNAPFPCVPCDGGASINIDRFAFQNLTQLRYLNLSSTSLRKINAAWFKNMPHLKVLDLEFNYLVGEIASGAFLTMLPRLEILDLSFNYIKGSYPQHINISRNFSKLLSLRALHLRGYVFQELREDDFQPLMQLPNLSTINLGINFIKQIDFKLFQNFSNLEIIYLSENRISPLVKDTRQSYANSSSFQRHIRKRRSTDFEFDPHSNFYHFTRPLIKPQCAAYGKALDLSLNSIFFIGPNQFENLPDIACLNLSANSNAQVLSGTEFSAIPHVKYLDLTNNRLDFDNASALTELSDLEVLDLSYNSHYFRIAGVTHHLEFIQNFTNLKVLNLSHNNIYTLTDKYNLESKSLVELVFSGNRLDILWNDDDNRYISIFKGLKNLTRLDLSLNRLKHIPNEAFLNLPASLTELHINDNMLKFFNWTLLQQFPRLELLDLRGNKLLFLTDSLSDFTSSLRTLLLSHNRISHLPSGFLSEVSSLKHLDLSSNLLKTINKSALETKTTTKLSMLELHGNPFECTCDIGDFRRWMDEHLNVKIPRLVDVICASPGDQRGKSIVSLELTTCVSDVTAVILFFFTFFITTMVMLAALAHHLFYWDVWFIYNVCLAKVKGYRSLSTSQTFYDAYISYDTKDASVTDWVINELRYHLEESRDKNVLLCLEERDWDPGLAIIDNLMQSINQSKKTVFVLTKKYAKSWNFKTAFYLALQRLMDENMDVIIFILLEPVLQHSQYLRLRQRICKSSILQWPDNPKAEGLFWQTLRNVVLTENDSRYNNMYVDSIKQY
In words: TLR8 inhibition reporter assay (HEK-Blue SEAP reporter, R848 stimulation). As to conditions: HEK-Blue cells overexpressing human TLR8, SEAP reporter, R848 15.9 μM, 22 hour incubation. The gist of the method: (§1)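 Compound treatment: 30 min, RT, 0.05 nM–50 μM final. Agonist: TLR7 gardiquimod 7.5 μM; TLR8 R848 15.9 μM; TLR9 ODN2006 5 nM. Incubation 22 h, 37 °C, 5% CO2. Readout SEAP, HEK-Blue Detection.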
(A reporter such as luciferase makes a cellular process visible.)

A further assay deals with T2, human TLR7 (Homo sapiens, UniProt Q9NYK1).
T2 construct: host or cells: HEK-Blue cells
T2 sequence (Q9NYK1 27-1049): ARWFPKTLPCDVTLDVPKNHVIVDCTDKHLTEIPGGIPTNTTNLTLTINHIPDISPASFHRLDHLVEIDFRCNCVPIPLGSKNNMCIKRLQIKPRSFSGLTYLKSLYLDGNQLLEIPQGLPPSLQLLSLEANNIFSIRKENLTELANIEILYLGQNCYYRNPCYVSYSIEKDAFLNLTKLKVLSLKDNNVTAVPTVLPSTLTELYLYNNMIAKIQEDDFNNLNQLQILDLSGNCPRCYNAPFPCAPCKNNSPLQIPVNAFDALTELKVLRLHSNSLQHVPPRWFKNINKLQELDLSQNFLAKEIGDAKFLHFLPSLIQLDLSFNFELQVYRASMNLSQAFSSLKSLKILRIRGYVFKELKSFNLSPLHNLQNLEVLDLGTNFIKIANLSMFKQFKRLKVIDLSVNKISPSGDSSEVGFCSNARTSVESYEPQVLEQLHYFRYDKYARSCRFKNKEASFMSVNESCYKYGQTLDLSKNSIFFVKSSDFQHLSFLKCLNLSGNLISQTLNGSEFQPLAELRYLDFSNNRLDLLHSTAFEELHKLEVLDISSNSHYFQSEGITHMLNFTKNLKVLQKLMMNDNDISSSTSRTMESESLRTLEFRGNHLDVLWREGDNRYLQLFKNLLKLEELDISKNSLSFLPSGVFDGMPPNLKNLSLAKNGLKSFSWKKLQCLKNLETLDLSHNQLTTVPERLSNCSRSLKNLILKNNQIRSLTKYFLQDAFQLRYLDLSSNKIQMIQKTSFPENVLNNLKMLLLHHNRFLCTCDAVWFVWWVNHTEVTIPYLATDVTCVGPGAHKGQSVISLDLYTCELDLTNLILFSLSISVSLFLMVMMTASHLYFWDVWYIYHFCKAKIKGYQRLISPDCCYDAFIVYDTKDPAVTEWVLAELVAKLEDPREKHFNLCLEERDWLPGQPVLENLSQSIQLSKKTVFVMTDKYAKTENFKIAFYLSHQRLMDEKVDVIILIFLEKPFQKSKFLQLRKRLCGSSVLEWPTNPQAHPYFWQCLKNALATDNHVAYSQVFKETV
The experiment in a line: TLR7 inhibition reporter assay (HEK-Blue SEAP reporter, gardiquimod stimulation). As to conditions: HEK-Blue cells overexpressing human TLR7, SEAP reporter, gardiquimod 7.5 μM, 22 hour incubation. An outline of the steps: as §1

The target in another assay is T3, human TLR9 (Homo sapiens, UniProt Q9NR96).
T3 construct: host or cells: HEK-Blue cells
T3 sequence (Q9NR96 26-1032): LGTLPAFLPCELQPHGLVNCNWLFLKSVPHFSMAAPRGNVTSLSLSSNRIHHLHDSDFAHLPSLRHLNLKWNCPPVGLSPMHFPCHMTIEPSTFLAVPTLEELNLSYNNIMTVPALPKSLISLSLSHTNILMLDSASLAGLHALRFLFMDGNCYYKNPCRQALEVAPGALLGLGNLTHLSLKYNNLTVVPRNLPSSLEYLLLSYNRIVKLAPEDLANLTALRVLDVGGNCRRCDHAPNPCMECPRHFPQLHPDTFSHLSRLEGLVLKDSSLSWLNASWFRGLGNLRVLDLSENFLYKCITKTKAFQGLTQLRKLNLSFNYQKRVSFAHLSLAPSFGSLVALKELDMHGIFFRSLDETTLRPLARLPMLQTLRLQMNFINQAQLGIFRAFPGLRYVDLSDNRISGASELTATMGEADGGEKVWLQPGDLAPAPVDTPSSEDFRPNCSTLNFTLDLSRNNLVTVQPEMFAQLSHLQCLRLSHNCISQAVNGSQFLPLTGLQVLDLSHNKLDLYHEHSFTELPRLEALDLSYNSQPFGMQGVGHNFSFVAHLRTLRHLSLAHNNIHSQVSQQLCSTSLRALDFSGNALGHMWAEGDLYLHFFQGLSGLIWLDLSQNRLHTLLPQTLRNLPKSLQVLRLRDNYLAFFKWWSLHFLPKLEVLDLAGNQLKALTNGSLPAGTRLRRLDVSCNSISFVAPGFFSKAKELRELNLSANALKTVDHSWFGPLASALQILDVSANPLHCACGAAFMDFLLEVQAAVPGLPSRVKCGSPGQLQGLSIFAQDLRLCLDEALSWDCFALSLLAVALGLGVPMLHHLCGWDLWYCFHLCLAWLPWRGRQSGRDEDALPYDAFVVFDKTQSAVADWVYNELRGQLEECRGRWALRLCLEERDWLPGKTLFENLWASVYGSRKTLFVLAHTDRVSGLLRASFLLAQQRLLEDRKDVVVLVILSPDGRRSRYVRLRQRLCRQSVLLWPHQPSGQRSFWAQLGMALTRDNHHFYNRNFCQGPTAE
The experiment in a line: TLR9 inhibition reporter assay (HEK-Blue SEAP reporter, ODN2006 stimulation). As to conditions: HEK-Blue cells overexpressing human TLR9, SEAP reporter, ODN2006 5 nM, 22 hour incubation. The gist of the method: as §1

Twelve molecules from patent publication US11447466B2, “Substituted indole compounds useful as inhibitors of TLR7/8/9” (BRISTOL-MYERS SQUIBB COMPANY, priority 2017, dated 2022) can be followed below.

Turning to `Cc1c(-c2[nH]c3ccc(C4CCN(C(C)(C)C(N)=O)CC4)cc3c2C(C)C)cn(C)c(=O)c1Cl` [Example 154, 2-(4-(2-(5-chloro-1,4-dimethyl-6-oxo-1,6-dihydropyridin-3-yl)-3-isopropyl-1H-indol-5-yl)piperidin-1-yl)-2-methylpropanamide], the IC50 came out at 26.6 nM against human TLR8, 4.6 nM against human TLR7 and 13.8 µM on human TLR9.

As for `Cc1cc(-c2[nH]c3ccc(C4CCN(CC(=O)N(C)C)CC4)cc3c2C(C)C)cn(C)c1=O` [Example 71, 2-(4-(2-(1,5-dimethyl-6-oxo-1,6-dihydropyridin-3-yl)-3-isopropyl-1H-indol-5-yl)piperidin-1-yl)-N,N-dimethylacetamide], the IC50 at human TLR8 amounted to 5.1 nM; on human TLR7, 2.8 nM; at human TLR9 it was 11 µM.

With `Cc1c(-c2[nH]c3ccc(C4CCNCC4)cc3c2C(C)C)cc(Cl)c(=O)n1C` [Example 33, 3-chloro-5-(3-isopropyl-5-(piperidin-4-yl)-1H-indol-2-yl)-1,6-dimethylpyridin-2(1H)-one], the IC50 at human TLR8 turned out to be 12.6 nM; at human TLR7 it was 16.1 nM; against human TLR9, 0.922 µM.

As for `Cc1cc(-c2[nH]c3ccc(C4CCN(CC(O)C(C)C)CC4)cc3c2C(C)C)cn(C)c1=O` (stereo not drawn) [Example 324, 5-(5-(1-(2-hydroxy-3-methylbutyl)piperidin-4-yl)-3-isopropyl-1H-indol-2-yl)-1,3-dimethylpyridin-2(1H)-one], the concentration for half-maximal inhibition (IC50) against human TLR8 stood at 2.8 nM; against human TLR7, 2.5 nM; at human TLR9 it was 11.5 µM.

Consider `CCc1cc(-c2[nH]c3ccc(C4CCN(CC(=O)N(C)C)CC4)cc3c2C(C)C)cn(C)c1=O` [Example 168, 2-(4-(2-(5-ethyl-1-methyl-6-oxo-1,6-dihydropyridin-3-yl)-3-isopropyl-1H-indol-5-yl)piperidin-1-yl)-N,N-dimethylacetamide], for which the IC50 at human TLR8 is 10.3 nM; at human TLR7, 7.9 nM; against human TLR9, 2.38 µM.

For `CC(C)c1c(-c2ccc(=O)n(C)c2)[nH]c2ccc(C3CCN(C4COC4)CC3)cc12` [Example 175, 5-(3-isopropyl-5-(1-(oxetan-3-yl)piperidin-4-yl)-1H-indol-2-yl)-1-methylpyridin-2(1H)-one], the IC50 against human TLR8 turned out to be 87.5 nM; at human TLR7, 275 nM; on human TLR9 it was 15.5 µM.

Regarding `COCCN1CCC(c2ccc3[nH]c(-c4cn(C)c(=O)c(Cl)c4C)c(C(C)C)c3c2)CC1` [Example 95, 3-chloro-5-(3-isopropyl-5-(1-(2-methoxyethyl)piperidin-4-yl)-1H-indol-2-yl)-1,4-dimethylpyridin-2(1H)-one], the IC50 on human TLR8 was 7.8 nM; against human TLR7 it was 7 nM; against human TLR9, 6.09 µM.

Take `CC(C)c1c(-c2cc(-c3cncnc3)c(=O)n(C)c2)[nH]c2ccc(C3CCNCC3)cc12` [Example 54, 5-(3-isopropyl-5-(piperidin-4-yl)-1H-indol-2-yl)-1-methyl-3-(pyrimidin-5-yl)pyridin-2(1H)-one]: the IC50 worked out at 5.9 nM against human TLR8, 23.4 nM on human TLR7 and 0.753 µM on human TLR9.

For `Cc1cc(-c2[nH]c3ccc(C4CCN([C@H]5COCC[C@@H]5O)CC4)cc3c2C(C)C)cn(C)c1=O` [Example 314, 5-(5-(1-((3S,4S)-4-hydroxytetrahydro-2H-pyran-3-yl)piperidin-4-yl)-3-isopropyl-1H-indol-2-yl)-1,3-dimethylpyridin-2(1H)-one], the IC50 on human TLR8 is 5.1 nM; at human TLR7, 5.2 nM; on human TLR9, 10.1 µM.

As for `Cc1cc(-c2[nH]c3ccc(C4CCN(Cc5cnn(C)c5)CC4)cc3c2C(C)C)cn(C)c1=O` [Example 196, 5-(3-isopropyl-5-(1-((1-methyl-1H-pyrazol-4-yl)methyl)piperidin-4-yl)-1H-indol-2-yl)-1,3-dimethylpyridin-2(1H)-one], the IC50 against human TLR8 was 2.4 nM; against human TLR7, 3 nM; on human TLR9, 4.98 µM.

With `Cc1cc(-c2[nH]c3ccc(C4CCN(CCCC(F)(F)F)CC4)cc3c2C(C)C)cn(C)c1=O` [Example 79, 5-(3-isopropyl-5-(1-(4,4,4-trifluorobutyl)piperidin-4-yl)-1H-indol-2-yl)-1,3-dimethylpyridin-2(1H)-one], the IC50 is 10.8 nM against human TLR8, 11.1 nM on human TLR7 and 3.79 µM on human TLR9.

As to `CCCN1CCC(c2ccc3[nH]c(-c4cc(-c5cnc(C(F)(F)F)nc5)c(=O)n(C)c4)c(C(C)C)c3c2)CC1` [Example 339, 5-(3-isopropyl-5-(1-propylpiperidin-4-yl)-1H-indol-2-yl)-1-methyl-3-(2-(trifluoromethyl)pyrimidin-5-yl) pyridin-2(1H)-one], the values for the half-inhibitory concentration (IC50) at human TLR8, on human TLR7 and against human TLR9 were 2140 nM, 28.9 nM and 1.02 µM, respectively.

The IC50 is the concentration that gives 50% inhibition. High values mean weaker potency in that assay, low ones greater potency in that assay.
